As usually defined, the IC50 is the concentration at which inhibition is half-maximal.

For the assay, the target named is T1, Recombinant human EP300 containing the bromodomain (EP300-BD (1040-1161)) (Homo sapiens, UniProt Q09472).
T1 construct: Recombinant human EP300 bromodomain (EP300-BD (1040-1161)); made in house; host or cells: E. coli BL21-CodonPlus (DE3), modified pET vector
T1 sequence (Q09472 1040-1161): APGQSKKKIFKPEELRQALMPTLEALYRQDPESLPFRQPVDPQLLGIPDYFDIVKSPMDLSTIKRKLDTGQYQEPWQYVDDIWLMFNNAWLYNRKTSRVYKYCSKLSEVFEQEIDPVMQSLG
Description: EP300 Alphascreen binding assay. In outline:
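Displacement of a biotinylated acetyl-K56 histone H3 peptide from the N-His bromodomain construct (1040-1161) measured by AlphaScreen proximity, beads at 7.5 μg/ml final, read 60 min after addition. Protein, peptide and compound first incubated 1 h at room temperature, pH 7.5 HEPES buffer; IC50 by four-parameter logistic fit.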
In general terms: Alpha assays give light when donor and acceptor beads are brought close together.
Turning to `COc1cccc(OC)c1-n1cc(-c2ccccc2)c2ncc(-c3c(C)noc3C)cc21` [P-0221, 4-(1-(2,6-dimethoxyphenyl)-3-phenyl-1H-pyrrolo[3,2-b]pyridin-6-yl)-3,5-dimethylisoxazole], the IC50 was 0.1 to 1000 nM. As to `CCOc1cc(C(=O)O)cc(OCC)c1-n1cc(-c2ccnc(F)c2)c2ncc(-c3c(C)noc3C)cc21` [P-0222, 4-(6-(3,5-dimethylisoxazol-4-yl)-3-(2-fluoropyridin-4-yl)-1H-pyrrolo[3,2-b]pyridin-1-yl)-3,5-diethoxybenzoic acid], the 50% inhibitory concentration (IC50) lay within 0.1 to 1000 nM. As for `Cc1noc(C)c1-c1cnc2c(c1)c(-c1ccc(C(=O)O)cc1OC(F)(F)F)cn2-c1ccccc1F` [P-0223, 4-(5-(3,5-dimethylisoxazol-4-yl)-1-(2-fluorophenyl)-1H-pyrrolo[2,3-b]pyridin-3-yl)-3-(trifluoromethoxy)benzoic acid], the IC50 lay within 0.1 to 1000 nM. The result for `CCOc1cccc(Cl)c1-n1cc(-c2ccccc2)c2ncc(-c3c(C)noc3C)cc21` [P-0224, 4-(1-(2-chloro-6-ethoxyphenyl)-3-phenyl-1H-pyrrolo[3,2-b]pyridin-6-yl)-3,5-dimethylisoxazole] reads 1000 to 8000 nM; that for `CCOc1ccc(C(=O)O)cc1-n1cc(-c2ccccc2)c2ncc(-c3c(C)noc3C)cc21` [P-0225, 3-(6-(3,5-dimethylisoxazol-4-yl)-3-phenyl-1H-pyrrolo[3,2-b]pyridin-1-yl)-4-ethoxybenzoic acid], 0.1 to 1000 nM; that for `Cc1noc(C)c1-c1cnc2c(c1)c(-c1ccc(C(=O)O)cc1OC(F)(F)F)cn2C1CCOCC1` [P-0226, 4-(5-(3,5-dimethylisoxazol-4-yl)-1-(tetrahydro-2H-pyran-4-yl)-1H-pyrrolo[2,3-b]pyridin-3-yl)-3-(trifluoromethoxy)benzoic acid], 0.1 to 1000 nM. For the compound `Cc1noc(C)c1-c1cnc2c(c1)c(-c1ccc(C(=O)O)cc1OC(F)(F)F)cn2C1CCC(F)(F)CC1` [P-0227, 4-(1-(4,4-difluorocyclohexyl)-5-(3,5-dimethylisoxazol-4-yl)-1H-pyrrolo[2,3-b]pyridin-3-yl)-3-(trifluoromethoxy)benzoic acid], the IC50 fell in the range of 0.1 to 1000 nM. Regarding `Cc1noc(C)c1-c1cnc2c(c1)c(-c1ccc(C(=O)O)cc1OC(F)(F)F)c(C)n2-c1ccccn1` [P-0228, 4-(5-(3,5-dimethylisoxazol-4-yl)-2-methyl-1-(pyridin-2-yl)-1H-pyrrolo[2,3-b]pyridin-3-yl)-3-(trifluoromethoxy)benzoic acid], the IC50 was 0.1 to 1000 nM. `Cc1noc(C)c1-c1cnc2c(-c3ccc(F)cc3F)cn(-c3ccc(C(=O)O)cc3OC(F)(F)F)c2c1` [P-0229, 4-(3-(2,4-difluorophenyl)-6-(3,5-dimethylisoxazol-4-yl)-1H-pyrrolo[3,2-b]pyridin-1-yl)-3-(trifluoromethoxy)benzoic acid]: the IC50 is 0.1 to 1000 nM.

Take `Cc1noc(C)c1-c1cnc2c(c1)c(-c1c(F)cc(C(=O)O)cc1OC(F)(F)F)cn2C(C1CC1)C1CC1` [P-0230, 4-(1-(dicyclopropylmethyl)-5-(3,5-dimethylisoxazol-4-yl)-1H-pyrrolo[2,3-b]pyridin-3-yl)-3-fluoro-5-(trifluoromethoxy)benzoic acid]: the IC50 fell in the range of 0.1 to 1000 nM. As to `Cc1ccccc1-n1cc(-c2ccc(C(=O)O)cc2OC(F)(F)F)c2cc(-c3c(C)noc3C)cnc21` [P-0231, 4-(5-(3,5-dimethylisoxazol-4-yl)-1-(o-tolyl)-1H-pyrrolo[2,3-b]pyridin-3-yl)-3-(trifluoromethoxy)benzoic acid], the half-inhibitory concentration (IC50) lay within 0.1 to 1000 nM. For `Cc1noc(C)c1-c1cnc2c(c1)c(-c1ccc(C(=O)O)cc1OC(F)(F)F)cn2-c1ccc(F)cc1F` [P-0232, 4-(1-(2,4-difluorophenyl)-5-(3,5-dimethylisoxazol-4-yl)-1H-pyrrolo[2,3-b]pyridin-3-yl)-3-(trifluoromethoxy)benzoic acid], the IC50 is 0.1 to 1000 nM.

(Values after patent US11446287B2, “Compounds and methods for EP300 or CBP modulation and indications therefor” (Opna Immuno-Oncology SA, priority 2019, dated 2022).)
